The test concerns A498 complex spheroids with HUVEC/MSC, growth. Description: Anticancer human tumor A498 cell line growth inhibition [AhR].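 On all read-outs here: seven day exposure starting three days after spheroid seeding.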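 On viability, T/C: luminescence signal used as a surrogate for viable cells; luminescence viability scaled so 100% equals DMSO vehicle wells.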 Particulars: for viability, T/C: stronger effect = lower value. The source says: Multicellular complex tumor spheroid response to aryl hydrocarbon receptor antagonists in combination with a variety of drugs and investigational agents in selected tumor cell lines
The current study was undertaken to assess response to aryl hydrocarbon receptor antagonists in combination with standard-of-care drugs and investigational agents in solid tumor complex spheroid models. Complex spheroids include a stromal component modeled by human endothelial cells (HUVEC) and fibroblasts modeled by human mesenchymal stem cells (MSCs). The concentration ranges selected for each drug and investigational agent were based upon clinically achievable concentrations if the clinical Cmax of the agent was known.
Compounds. The drugs and investigational agents: BAY 2416964 (NSC825713), GNF351 (NSC835774), CH-223191 (NSC835775), CPI-455 (NSC825282), aza-TdCyd (NSC777586), decitabine (NSC127716), belinostat (NSC758774), entinostat (NSC756642), pevonedistat (NSC761192), tazemetostat (NSC777109), talazoparib (NSC765396), olaparib (NSC753686), selinexor (NSC780203), nedisertib (M3814, NSC802822), bortezomib (NSC756655), venetoclax (NSC766270), doxorubicin (NSC123127), elimusertib (BAY189344, NSC800525), ceralasertib (AZD6738, NSC777638), TAK-243 (NSC785004), alisertib (NSC759677), etoposide (NSC141540), topotecan (NSC609699), eribulin (NSC707389), gemcitabine (NSC613327), carboplatin (NSC241240), cisplatin (NSC119875), and SN-38 (NSC673596) were obtained from the National Cancer Institute (NCI) Developmental Therapeutics Program Chemical Repository (32). The FDA-approved anticancer drug set is available from the Developmental Therapeutics Program at https://dtp.cancer.gov/organization/dscb/obtaining/available plates.htm. […] The stock solutions were prepared in dimethyl sulfoxide (DMSO, Sigma-Aldrich, St. Louis, MO, cat. D2650), except for the platinum compounds which were prepared in saline (Quality Biological, Gaithersburg, MD, cat. 114-055-101), at 800-fold the tested concentration and stored at -70 degrees C prior to their use. All drugs and investigational agents were tested over a range starting from a high concentration at or near the clinical Cmax and decreasing in half-log increments. If the clinical Cmax for an agent had not been determined, the highest concentration tested was 10 microM (Table 1).
Cell Culture. All cells were maintained in an incubator at 37 degrees C and 5% CO2 with 95% humidity. The PDC lines were cultured according to standard operating procedures established by the NCI PDMR (https://pdmr.cancer.gov). Briefly, all PDCs were thawed and cultured in Matrigel-coated flasks prepared with a working solution of 1X Ham's F-12 nutrient mix, without supplementation (Invitrogen, Waltham, MA, cat. 11765054), 100 U/mL penicillin-streptomycin (Invitrogen, cat. 15140122), and 2.5% Matrigel (Corning Inc., Corning, NY, cat. 354248) for the first three passages. All PDCs were cultured in complete DMEM/F-12 media containing advanced DMEM/F-12 (Invitrogen, cat. 12634028), 4.9% defined fetal bovine serum, heat inactivated (HyClone Laboratories Inc., Logan, UT, cat. SH30070.03HI), 389 ng/mL hydrocortisone (Sigma-Aldrich, cat. H4001), 9.7 ng/mL human EGF recombinant protein (Invitrogen, cat. PHG0313), 23.4 microg/mL adenine (Sigma-Aldrich, cat. A2786), 97.3 U/mL penicillin-streptomycin (Invitrogen, cat. 15140122), 1.9 mM L-glutamine (Invitrogen, cat. 25030081), and 9.7 microM Y-27632 dihydrochloride (Tocris Bioscience, Bristol, United Kingdom, cat. 1254). The PDCs were cultured in complete DMEM/F12 media without 10 microM Y-27632 dihydrochloride for at least two passages prior to the screen. The established cell lines NCI-H1341 and […] were cultured in DMEM/F-12, HEPES (Invitrogen, cat. 11330032), 5% defined fetal bovine serum (HyClone Laboratories Inc., cat. SH30070.03), ITS premix universal culture supplement [insulin (5 microg/mL), transferrin (5 microg/mL), and selenious acid (5 ng/mL)] […]

Where “and” joins values, the source holds several entries; their conditions need not be identical. Equal entries are not always repeated.

As to `CC(C)c1c(-c2ccccc2)nc2c(C#N)c[nH]n2c1=O`, the viability, T/C is 109% and 96.5% and 102% (compound 0.0316 µM); 113% and 109% and 96% (compound 0.1 µM); 104% and 105% and 96.3% (compound 0.316 µM); 99.8% and 104% and 97.1% (compound 1 µM); 102% (2×) and 98.6% (compound 3.16 µM); 106% and 112% and 96.8% (compound 10 µM). Also, the IC50 (curve of compound) was > 10000 nM.
With `CC(CO)NC(=O)c1cc(-c2ccc(Cl)cc2)nn(-c2cnn(C)c2)c1=O` (stereo not drawn), the viability, T/C is 92.3% [middle of 20 runs] (compound 0.1 µM); 90.5% [middle of 21 runs] (compound 0.316 µM); 85.9% [middle of 21 runs] (compound 1 µM); 83.2% [middle of 19 runs] (compound 3.16 µM); 68.4% [middle of 19 runs] (compound 10 µM). Besides, the IC50 (compound alone, run of 08/08/2022) was > 10000 nM.
Consider `CC1COCCN1c1cc(C2(S(C)(=N)=O)CC2)nc(-c2ccnc3[nH]ccc23)n1` (stereo not drawn), for which the viability, T/C (compound 0.0316 µM) is 106% and 101% (2×); the viability, T/C (compound 0.1 µM) is 111% and 103% and 107%; the viability, T/C (compound 0.316 µM) is 104% and 99.8% and 95.7%; the viability, T/C (compound 1 µM) was 92.2% and 72.5% and 72.7%; the viability, T/C (compound 3.16 µM) was 61% and 46.5% and 37%; the viability, T/C (compound 10 µM) was 29% and 24.8% and 19.5%. Besides, the IC50 (curve of compound) is 4680 nM and 2570 nM and 2070 nM.
For the compound `COc1ccc([C@@H](O)c2cc(-c3ncnc4cc(N5CCOCC5)ccc34)c(F)cc2Cl)nn1`, the viability, T/C runs as follows: (compound 0.0316 µM) 96.5% and 95.1% and 98.9%; (compound 0.1 µM) 92% and 80.4% and 92.3%; (compound 0.316 µM) 64.8% and 60.7% and 62%; (compound 1 µM) 40.2% and 59.5% and 30.9%; (compound 3.16 µM) 23.1% and 19.5% and 17.6%; (compound 10 µM) 12.3% and 7.92% and 9.02%. The IC50 (curve of compound) is 654 nM and 887 nM and 508 nM.
As for `Cc1ccccc1N=Nc1ccc(NC(=O)c2ccnn2C)c(C)c1`, the viability, T/C (compound 0.1 µM) was 88.8% [middle of 20 runs]; the viability, T/C (compound 0.316 µM) was 96.8% [middle of 20 runs]; the viability, T/C (compound 1 µM) was 89.2% [middle of 20 runs]; the viability, T/C (compound 3.16 µM) was 84.9% [middle of 20 runs]; the viability, T/C (compound 10 µM) is 86.3% [middle of 20 runs]. The IC50 (compound alone, run of 08/22/2022) was > 10000 nM.
Consider `Cc1cncc(-c2nc(NCCc3c[nH]c4ccccc34)c3ncn(C(C)C)c3n2)c1`, for which the viability, T/C runs as follows: (compound 0.1 µM) 90% [middle of 20 runs]; (compound 0.316 µM) 95.3% [middle of 20 runs]; (compound 1 µM) 87.7% [middle of 20 runs]; (compound 10 µM) 4.87% [middle of 19 runs]. Also, the IC50 (compound alone, run of 08/16/2022) is 3.7 µM [middle of 24 runs].
In the case of `COc1cccc2c1C(=O)c1c(O)c3c(c(O)c1C2=O)CC(O)(C(=O)CO)CC3OC1CC(N)C(O)C(C)O1` (stereo not drawn) + CC(CO)NC(=O)c1cc(-c2ccc(Cl)cc2)nn(-c2cnn(C)c2)c1=O, the IC50 by setting is: (curve of first compound, second compound 0.1 µM) 129 nM; (curve of first compound, second compound 0.316 µM) 148 nM; (curve of first compound, second compound 1 µM) 231 nM; (curve of first compound, second compound 3.16 µM) 119 nM; (curve of first compound, second compound 10 µM) < 31.6 nM. The viability, T/C reads like this: (second compound 0.1 µM, first compound 0.0316 µM) 55.1%; (second compound 0.1 µM, first compound 0.1 µM) 55.6%; (second compound 0.1 µM, first compound 0.316 µM) 37.6%; (second compound 0.1 µM, first compound 1 µM) 16.1%; (second compound 0.1 µM, first compound 3.16 µM) 2.16%; (second compound 0.1 µM, first compound 10 µM) 0.7%. Also, the viability, T/C (second compound 0.316 µM, first compound 0.0316 µM) was 55%; the viability, T/C (second compound 0.316 µM, first compound 0.1 µM) is 53.3%; the viability, T/C (second compound 0.316 µM, first compound 0.316 µM) is 43.3%; the viability, T/C (second compound 0.316 µM, first compound 1 µM) was 16.4%; the viability, T/C (second compound 0.316 µM, first compound 3.16 µM) is 2.65%; the viability, T/C (second compound 0.316 µM, first compound 10 µM) is 0.83%. Besides, the viability, T/C by setting is: (second compound 1 µM, first compound 0.0316 µM) 56.1%; (second compound 1 µM, first compound 0.1 µM) 56.2%; (second compound 1 µM, first compound 0.316 µM) 47.7%; (second compound 1 µM, first compound 1 µM) 20.4%; (second compound 1 µM, first compound 3.16 µM) 4.74%; (second compound 1 µM, first compound 10 µM) 2.49%. Moreover, the viability, T/C is, setting by setting: (second compound 3.16 µM, first compound 0.0316 µM) 52.6%; (second compound 3.16 µM, first compound 0.1 µM) 49.8%; (second compound 3.16 µM, first compound 0.316 µM) 44.1%; (second compound 3.16 µM, first compound 1 µM) 11.3%; (second compound 3.16 µM, first compound 3.16 µM) 3.01%; (second compound 3.16 µM, first compound 10 µM) 1.69%. Further, the viability, T/C is, setting by setting: (second compound 10 µM, first compound 0.0316 µM) 46.6%; (second compound 10 µM, first compound 0.1 µM) 38.5%; (second compound 10 µM, first compound 0.316 µM) 31.9%; (second compound 10 µM, first compound 1 µM) 1.3%; (second compound 10 µM, first compound 3.16 µM) 2.75%; (second compound 10 µM, first compound 10 µM) 0.83%.

The values are drawn from PubChem BioAssay AID1919007 (Molecular Pharmacology Branch, DTP, NCI, 2023).
